According to the supplement of paper PMC13380429:
Where a name gives a salt, the structure may show the parent alone.

Tests used:
Conditions in all cases: 72 h
Caco-2 [1] = assay: cell viability relative to DMSO; higher = less toxic
Calu-3 [2] = assay: as above
HepG2 [3] = assay: as above
U2OS [4] = assay: as above
Vero E6 [5] = assay: as above
Caco-2 [6] = assay: relative viability EC50 (midpoint between 100% and the lowest measured viability); higher = less toxic
Calu-3 [7] = assay: as above
HepG2 [8] = assay: as above
U2OS [9] = assay: as above
Vero E6 [10] = assay: as above
Caco-2 [11] = assay: drug sensitivity score (DSS) for viability; higher = more toxic; extreme values may be limits of the assay
Calu-3 [12] = assay: as above
HepG2 [13] = assay: as above
U2OS [14] = assay: as above
Vero E6 [15] = assay: as above

Compound	cell viability (Caco-2 [1]; 1 nM) [%]	cell viability (Caco-2 [1]; 10 nM) [%]	cell viability (Caco-2 [1]; 100 nM) [%]	cell viability (Caco-2 [1]; 1000 nM) [%]	cell viability (Caco-2 [1]; 10000 nM) [%]	cell viability (Calu-3 [2]; 1 nM) [%]	cell viability (Calu-3 [2]; 10 nM) [%]	cell viability (Calu-3 [2]; 100 nM) [%]	cell viability (Calu-3 [2]; 1000 nM) [%]	cell viability (Calu-3 [2]; 10000 nM) [%]	cell viability (HepG2 [3]; 1 nM) [%]	cell viability (HepG2 [3]; 10 nM) [%]	cell viability (HepG2 [3]; 100 nM) [%]	cell viability (HepG2 [3]; 1000 nM) [%]	cell viability (HepG2 [3]; 10000 nM) [%]	cell viability (U2OS [4]; 1 nM) [%]	cell viability (U2OS [4]; 10 nM) [%]	cell viability (U2OS [4]; 100 nM) [%]	cell viability (U2OS [4]; 1000 nM) [%]	cell viability (U2OS [4]; 10000 nM) [%]	cell viability (Vero E6 [5]; 1 nM) [%]	cell viability (Vero E6 [5]; 10 nM) [%]	cell viability (Vero E6 [5]; 100 nM) [%]	cell viability (Vero E6 [5]; 1000 nM) [%]	cell viability (Vero E6 [5]; 10000 nM) [%]	relative viability EC50 (Caco-2 [6]) [µM]	relative viability EC50 (Calu-3 [7]) [µM]	relative viability EC50 (HepG2 [8]) [µM]	relative viability EC50 (U2OS [9]) [µM]	relative viability EC50 (Vero E6 [10]) [µM]	drug sensitivity score (Caco-2 [11])	drug sensitivity score (Calu-3 [12])	drug sensitivity score (HepG2 [13])	drug sensitivity score (U2OS [14])	drug sensitivity score (Vero E6 [15])
C[C@@H]1C(=O)O[C@H]2C[C@@]34[C@H]5C[C@@H](C(C)(C)C)[C@]36[C@@H](OC(=O)[C@@H]6O)O[C@@]4(C(=O)O5)[C@]21O [Ginkgolide A]	101	97.3	98.2	93.4	95.6	104	103	96.4	106	105	101	88.5	100	92.6	94.3	105	98.4	102	100	104	104	95.1	98.9	97	103	> 10	> 10	> 10	> 10	> 10	0	0	0	0	0
C[C@H](CCC(=O)O)[C@H]1CC[C@H]2[C@@H]3C[C@H](O)[C@@H]4C[C@H](O)CC[C@]4(C)[C@H]3CC[C@]12C [Hyodeoxycholic acid (HDCA)]	88.5	100	99.3	101	106	108	103	87.8	107	101	95.6	102	104	93.9	106	95.8	103	105	104	104	92.3	95.4	95.2	94.3	108	> 10	> 10	> 10	> 10	> 10	0	0	0	0	0
CNC(=O)c1ccc(-c2cnc3ncc(Cc4ccc5ncccc5c4)n3n2)cc1F [INC-280]	97.9	90.7	96.6	104	88.4	101	103	99.9	101	110	89.2	100	88.8	111	82.6	107	95.7	99.6	98.1	102	95.7	98.4	91.5	96.1	83	> 10	> 10	> 10	> 10	> 10	0	0	0.2	0	0.3
Cc1cc(C)cc(C(=O)N(C)[C@H](Cc2ccc(-c3ccccc3)cc2)C(=O)N[C@@H](Cc2c[nH]c3ccccc23)C(=O)O)c1 [IRL-2500]	94	96.8	96.7	97.4	101	103	90.3	107	92.8	96.9	92.5	106	99.4	116	118	96.4	95.5	101	98.5	102	94.3	96.1	90.1	95.5	111	> 10	> 10	> 10	> 10	> 10	0	0	0	0	0
O=C(NC1CC1)c1cc(-c2cccs2)on1 [ISX-9]	98.1	98.3	93.3	101	87.6	93.6	105	104	99.7	84.3	104	95.8	102	103	87.6	97.7	98.4	98.4	102	85.5	111	96.5	108	99.4	101	> 10	> 10	> 10	> 10	> 10	0.1	0.3	0	0.1	0
COc1ccc2cc(-c3cc(-c4cc(Cl)cc(Cl)c4)nn3[C@@H](C)c3ccc(C(=O)NCCC(=O)O)cc3)ccc2c1 [MK-0893]	87.9	93.7	95.8	90.1	87.6	110	94.7	97.7	96.2	91.3	88.5	106	86.8	93.8	90	95.8	98.2	93.9	96.8	89.6	97.7	102	98.8	92.3	84.5	> 10	> 10	> 10	> 10	> 10	0	0	0	0	0.6
Cc1cc(C(N)=O)ccc1-n1c(CCC(=O)O)ccc1-c1ccc(-n2ccnc2)cc1 [N6022]	91.8	99.5	100	104	100	99.1	98.5	93.9	95.5	101	104	89.6	111	107	104	96.7	103	97.7	101	97.2	99.3	96.5	94.8	94	106	> 10	> 10	> 10	> 10	> 10	0	0	0	0	0
CN(C(=O)Cc1ccccc1)[C@H](CN1CCCC1)c1ccccc1 [N-MPPP]	111	94.8	102	97.4	95.9	103	96.2	91.6	106	93.4	93.5	93.6	97.8	100	98	95	95.8	101	102	99.1	105	104	102	106	99.5	> 10	> 10	> 10	> 10	> 10	0	0	0	0	0
CC(=O)N[C@@H](C=O)[C@@H](O)[C@H](O)[C@H](O)CO [N-acetyl-D-glucosamine]	93.3	97.6	113	102	107	103	111	101	93	95.9	91	85.7	94	94.7	87.3	102	99.7	102	97.3	102	100	110	104	106	87.5	> 10	> 10	> 10	> 10	> 10	0	0	0	0	0
CNCCc1cnc[nH]1 [N-alpha-methylhistamine-dihydrochloride]	94.5	104	92.5	98.2	102	101	97.2	91.5	109	94.5	104	95.9	103	87.7	112	97.4	105	101	102	98	99.4	91.6	96.7	91.5	97.1	> 10	> 10	> 10	> 10	> 10	0	0	0	0	0
O=C1CC[C@@]2(O)[C@H]3Cc4ccc(O)c5c4[C@@]2(CCN3CC2CC2)[C@H]1O5 [NALTREXONE HYDROCHLORIDE]	107	99	95.3	99.1	90	97.3	100	101	99.2	99	93.8	110	102	95.1	92.1	102	97.2	99.8	100	101	98.1	106	100	103	103	> 10	> 10	> 10	> 10	> 10	0	0	0	0	0
N=C(NCCC[C@H](N)C(=O)O)N[N+](=O)[O-] [NG-nitro-arginine]	92.7	88.8	106	84.2	89.4	93.5	106	91.7	93.7	94.6	96.7	101	95.2	101	95.2	104	95.6	101	93.2	97.9	104	101	103	101	92.8	> 10	> 10	> 10	> 10	> 10	0	0	0	0	0
Nc1nc(OCC2CCCCC2)c2nc[nH]c2n1 [NU-2058]	98.4	94.6	96.2	96.2	90.3	92.4	106	97.2	109	105	120	106	98.3	104	86.8	96.2	103	94.6	95.6	96	103	97.6	98.2	102	99.7	> 10	> 10	> 10	> 10	> 10	0	0	0.1	0	0
